Reference: patent US20080269310A1, “Synergistic Combinations” (priority 2005, published 2008)
Like-named read-outs stand apart in the source and are kept apart here.

What was measured:
[1] = system: carrageenan-induced thermal hyperalgesia; experiment: rat carrageenan footpad thermal hyperalgesia assay (Hargreaves test); format: in vivo; settings: gabapentin 10-100 mg/kg SC, carprofen 1-10 mg/kg SC, combination in fixed 10:1 ratio
Experimental: The aim of this experiment was to characterize the anti-nociceptive and anti-inflammatory effects of gabapentin administered in combination with carprofen in the rat. In this example, gabapentin, carprofen, and the combination of gabapentin and carprofen were evaluated in a standard rat carrageenan footpad thermal hyperalgesia assay. This assay utilizes an extract of seaweed (carrageenan) that, when injected into the footpad of test animals, causes a sterile inflammation, thereby lowering the pain threshold. […]
Each data point represents the mean and standard error of mean. […] The theoretical dose-additive line for a 10:1 dose ratio was determined (dotted line) as described (Tallarida, 1992). The experimental determination of a 10:1 dose ratio was determined (gabapentin-carprofen mixture 10:1) and a shift to the left of the theoretical dose-additive line was found. […]
Dose-effect curves were first determined for (1) gabapentin by itself and (2) carprofen by itself. The ED50 value of each agent was determined, as was the time to peak effect. […]
Carrageenan-induced thermal hyperalgesia: Rats were acclimated to a testing chamber whose glass floor was maintained at 25° C. One hour later, a high intensity beam of light was focused through the glass on the ventral surface of each hind paw, and the latency to reflex withdrawal of the paw from the light beam was measured to the nearest 0.1 second. […]

[2] = system: COX-2 isozyme compared to the COX-1 isozyme; settings: dogs, cited from earlier work
[3] = system: COX-2 isozyme compared to the COX-1 isozyme; settings: cats; American Journal of Veterinary Research, 2001, 62, 11, 1755; cited from earlier work
[4] = system: COX-2 isozyme compared to the COX-1 isozyme; settings: horses; American Journal of Veterinary Research, 2001, 62, 11, 1755; cited from earlier work

Row | SMILES | antihyperalgesic action (in words) [1] | selectivity for the COX-2 isozyme compared to the COX-1 isozyme ([2]; American Journal Veterinary Research, 2000, 61, 7, 802) [fold] | selectivity for the COX-2 isozyme compared to the COX-1 isozyme ([2]; American Journal Veterinary Research, 2002, 63, 1, 91) [fold] | selectivity for the COX-2 isozyme compared to the COX-1 isozyme ([2]; American Journal of Veterinary Research, 2001, 62, 11, 1755) [fold] | selectivity for the COX-2 isozyme compared to the COX-1 isozyme ([2]; WO 98/50033) [fold] | selectivity for the COX-2 isozyme compared to the COX-1 isozyme [3] [fold] | selectivity for the COX-2 isozyme compared to the COX-1 isozyme [4] [fold]
1 | CC(C(=O)O)c1ccc2c(c1)[nH]c1ccc(Cl)cc12 (stereo not drawn) [carprofen, 6-chloro-α-methyl-9H-carbazole-2-acetic acid] | antihyperalgesic actions | 1.75 | 16.8 | 6.5 | 129 | 5.5 | 1.6
2 | NCC1(CC(=O)O)CCCCC1 [gabapentin, 1-(aminomethyl)-cyclohexylacetic acid] | antihyperalgesic actions | – | – | – | – | – | –
